Results from the NIST ThermoML archive (doi:10.1016/j.jct.2011.02.008).

Test: xn = mol fraction of the nth substance listed
Settings: Liquid, Vibrating tube method

COC(=O)c1ccccc1 [methyl benzoate] + C1CCCCC1
mass density [kg/m3]
Settings	x1 = 0.0985	x1 = 0.1963	x1 = 0.2939	x1 = 0.3942	x1 = 0.4955	x1 = 0.596	x1 = 0.6975	x1 = 0.7993	x1 = 0.8982
278.15 K, 100 kPa	823.9	855.7	887.6	919.6	951.4	983.4	1014.3	1043.9	1072.7
278.15 K, 1000 kPa	824.5	856.4	888.3	920.2	952	984	1014.9	1044.4	1073.2
278.15 K, 5000 kPa	827.6	859.3	891.2	923	954.8	986.7	1017.4	1046.9	1075.6
278.15 K, 10000 kPa	831.2	863	894.7	926.4	958	989.9	1020.5	1049.8	1078.5
278.15 K, 15000 kPa	834.6	866.3	898	929.7	961.2	993	1023.5	1052.8	1081.3
278.15 K, 20000 kPa	838	869.6	901.3	932.8	964.3	996	1026.4	1055.6	1084.1
278.15 K, 25000 kPa	841.2	872.8	904.4	935.9	967.3	998.9	1029.3	1058.3	1086.7
278.15 K, 30000 kPa	844.4	875.9	907.4	938.9	970.2	1001.7	1032	1061	1089.3
278.15 K, 35000 kPa	847.4	878.9	910.4	941.8	973	1004.5	1034.7	1063.6	1091.9
278.15 K, 40000 kPa	850.5	881.8	913.3	944.6	975.8	1007.2	1037.4	1066.2	1094.4
278.15 K, 45000 kPa	–	884.6	916.1	947.4	978.5	1009.9	1040	1068.7	1096.9
278.15 K, 50000 kPa	–	887.4	918.8	950	981.1	1012.5	1042.5	1071.2	1099.3
278.15 K, 55000 kPa	–	890.1	921.5	952.7	983.7	1015	1045	1073.7	1101.7
278.15 K, 60000 kPa	–	892.6	923.9	955.1	986.3	1017.4	1047.3	1075.9	1103.8
288.15 K, 100 kPa	814.3	846.1	878	909.9	941.8	973.8	1004.7	1034.2	1063.1
288.15 K, 1000 kPa	815	846.9	878.7	910.6	942.4	974.5	1005.3	1034.8	1063.7
288.15 K, 5000 kPa	818.2	850	881.8	913.6	945.3	976.6	1008	1037.5	1066.2
288.15 K, 10000 kPa	822	853.8	885.5	917.2	948.8	980.7	1011.3	1040.6	1069.2
288.15 K, 15000 kPa	825.8	857.4	889.1	920.7	952.2	983.9	1014.4	1043.6	1072.2
288.15 K, 20000 kPa	829.2	860.9	892.5	924	955.4	987.1	1017.5	1046.6	1075
288.15 K, 25000 kPa	832.7	864.3	895.8	927.2	958.6	990.1	1020.5	1049.5	1077.9
288.15 K, 30000 kPa	836	867.5	899	930.3	961.6	993.1	1023.4	1052.3	1080.6
288.15 K, 35000 kPa	839.1	870.7	902.1	933.4	964.6	996	1026.2	1055	1083.3
288.15 K, 40000 kPa	842.2	873.7	905.1	936.3	967.5	998.8	1028.9	1057.7	1085.9
288.15 K, 45000 kPa	845.2	876.7	908	939.2	970.3	1001.6	1031.6	1060.3	1088.4
288.15 K, 50000 kPa	848.1	879.6	910.9	942	973	1004.3	1034.3	1062.9	1090.9
288.15 K, 55000 kPa	850.9	882.4	913.6	944.7	975.7	1006.9	1036.8	1065.5	1093.4
288.15 K, 60000 kPa	853.5	885	916.2	947.2	978.2	1009.3	1039.2	1067.8	1095.9
298.15 K, 100 kPa	804.8	836.5	868.4	900.3	932.2	964.2	995.1	1024.7	1053.6
298.15 K, 1000 kPa	805.6	837.3	869.2	901	932.9	964.9	995.8	1025.3	1054.2
298.15 K, 5000 kPa	809	840.7	872.5	904.2	935.9	967.9	998.6	1028.1	1056.9
298.15 K, 10000 kPa	813.1	844.7	876.3	908	939.6	971.4	1002	–	–
